According to PMC9663686, “Proline, hydroxyproline, and pyrrolidone carboxylic acid derivatives as highly efficient but reversible transdermal permeation enhancers” (Scientific Reports, 2022):
Converted amounts (≈) assume the structure as drawn.

Legend:
human skin [1] = conditions: 5% DC in PBS/isopropyl alcohol 9:1 on human skin; cited from earlier work
[2] = Diclofenac permeation through human skin in Franz diffusion cells with co-applied enhancer; assay type: in vitro ADME; conditions: pH 7.4; 3% DC in 60% PG, no enhancer; human skin in vitro; read-out: permeability coefficient of DC (converted)
Method: (§1) Donor samples for reversibility and infrared studies contained 1% enhancer in 60% PG. All samples were thoroughly mixed, incubated at 32 °C for 24 h, and, if needed, carefully resuspended before applying on the skin. The effects of the studied enhancers on the solubility of model drugs were assessed as described previously.
(§2) The permeation-enhancing potencies of the prepared compounds were evaluated on human skin in Franz diffusion cells. Human skin was slowly thawed, cut into 2 × 2 cm pieces, fixed in Teflon holders with 1-cm^2 circular permeation areas, and mounted into Franz cells epidermal side up. The acceptor compartment (15.9 ± 0.1 ml) was filled with phosphate-buffered saline at pH 7.4 with 0.005% gentamicin (PBS) and stirred at 32 °C throughout the experiment. The skin integrity was checked by electrical impedance (any skin sample with the impedance < 10 kΩ was excluded). Then, 100 µl of a donor sample (infinite dose) was applied to the skin and covered with a glass slide. Acceptor phase samples (300 µl) were collected at predetermined time intervals for 48 h, to reach steady-state and were replaced by the same volume of fresh PBS. […] The drug concentrations were measured by HPLC (see supplementary data).
(§3) The flux of the model drug through the skin Jss (µg/cm^2/h) was calculated from the linear region of this plot. The enhancement ratio (ER) was calculated as the ratio of flux with and without an enhancer.
(§4) After the permeation experiment, the cells were dismounted, the skin was carefully washed with PBS, and the permeation area of the skin (1 cm^2) was punched off. After heating the skin fragments to 80 °C for 1 min, the epidermis (E) was peeled off the dermis (D), individually weighed and extracted by 1 and 2 ml, respectively, of an extraction solvent (identical to the mobile phase for the drug HPLC analysis, see supplementary data) for 24 h. The drug concentration was measured by HPLC (see supplementary data).

[3] = Solubility of model drugs (donor sample, PBS); conditions: for solubility: pH 7.4
Method: as §1, §2

rat skin [4] = conditions: […] DC in ethanol/glycerol/water 6:1:3 on rat skin; cited from earlier work
human skin [5] = assay: Diclofenac permeation through human skin in Franz diffusion cells with co-applied enhancer; assay type: in vitro ADME; conditions: 1% enhancer co-applied with 3% DC in 60% PG
Method: as §1, §2, §3, §4

human skin [6] = assay: Theophylline permeation through human skin in Franz diffusion cells with co-applied enhancer; assay type: in vitro ADME; conditions: 1% enhancer co-applied with 5% TH in 60% PG
Method: The prepared enhancers were applied at 1% in 60% aqueous propylene glycol (PG) to human skin in vitro; 60% PG was used as a negative control. PG was selected for its synergy with amphiphilic enhancers. Each model drug was co-applied with the enhancer at infinite dose.
as §1, §2, §3, §4

[7] = DC: free acid form; quoted without reference; cited from earlier work
rats = conditions: cited from earlier work
rat skin [8] = conditions: rats; cited from earlier work
HaCaT and 3T3 cells = conditions: read-out: in vitro cellular toxicities on HaCaT and 3T3 cells; cited from earlier work
[9] = after 48 h permeation, mean ± SEM

## O=C(O)Cc1ccccc1Nc1c(Cl)cccc1Cl [DC, diclofenac]
Human skin [1]
  permeability coefficient of DC: 2.2 × 10^–5 cm/h
[2]
  Papp at 48 h, 3 %: 0.0144 ×10⁻⁶ cm/s
[3]; phosphate-buffered saline
  solubility: 9450 ± 150 µg/mL (≈ 31.9 mM)
Rat skin [4]
  permeability coefficient of DC: 11.0 × 10^–5 cm/h

## CCCCCCCCCCCCOC(=O)C1CCCN1C(=O)CCCCCCC (stereo not shown) [Pro8]
Human skin [5]; [9]
  CDERMIS, diclofenac concentration in dermis: 1.08 ± 0.28 µg/mg
  CEPIDERMIS, diclofenac concentration in epidermis: 10.20 ± 0.96 µg/mg
Human skin [5]; human skin in vitro
  ER, enhancement ratio of diclofenac flux: 3
Human skin [6]; [9]
  CDERMIS, theophylline concentration in dermis: 0.19 ± 0.02 µg/mg
  CEPIDERMIS, theophylline concentration in epidermis: 0.89 ± 0.25 µg/mg
Human skin [6]; human skin in vitro
  ER, enhancement ratio of theophylline flux (fold increase in flux over control): 9

## Cn1c(=O)c2[nH]cnc2n(C)c1=O [TH, theophylline]
[7]
  logP: ~ 0
[3]
  solubility at 24 h: ~25000 µg/mL (≈ 139 mM)
  solubility: 7650 ± 20 µg/mL (≈ 42.5 mM)

## CCCCCCCCCCCCOC(=O)CCCCCN.CCCCCCCCCCCCOC(=O)CCCCCNC(=O)O [Transkarbam 12]
rats
  acute oral toxicity in rats: no acute oral toxicity in rats
Rat skin [8]
  in vivo dermal irritation and toxicity: low in vivo dermal irritation and toxicity
HaCaT and 3T3 cells
  IC50: 21 to 26 µM
